# pIC50: −log10 of the molar value.
# Target: human LPA1 (Homo sapiens, UniProt Q92633)
# Test: In vitro functional assay of lysophosphatidic acid receptor 1 activity (calcium flux)
# Type: cell-based
# Conditions: B103 cells stably expressing human LPA1; Fluo-4 NW calcium flux after lysophosphatidic acid (18:1) at EC80; compounds 100 pM to 10 μM; read-out: LPA1 IC50
# Method: In vitro functional assay of lysophosphatidic acid receptor 1 activity
# Primary compound plates were prepared in 100% DMSO (Sigma-Aldrich), secondary compound plates were prepared at 10× concentration in DiVEM (Invitrogen), and tertiary compound plates were prepared at 3x concentration in assay buffer containing HBSS (no Ca^+2/Mg^+2, Invitrogen) and 0.1% BSA (Sigma-Aldrich). Fluo-4 NW calcium assay dye (Invitrogen) was prepared as per manufacturer's recommendations in assay buffer. B103 cells stably expressing human LPA1(J. Chun lab, UCSD) were grown to confluency in DMEM media (Invitrogen) containing 10% FBS (ATCC), […] (Sigma-Aldrich) and […] Geneticin (Sigma-Aldrich), and detached with Accutase (Sigma-Aldrich) prior to assay. The freshly detached cells were resuspended in growth media and plated in black, clear-bottom 96-well plates (Costar) containing compound (i.e., secondary compound plate) at a density of 5×10^4 cells/well. Once plated, cells were left at room temperature for 30 minutes and then transferred to a 37° C., […] incubator for 24 hours. After 24 hours, the growth media was then removed and freshly prepared Fluo-4 NW calcium assay dye was added to cells. Compounds (i.e. tertiary compound plates) were then added back to the dye/cells, returned to the incubator for 30 minutes, and then kept at room temperature for an additional 30 minutes. Finally, lysophosphatidic acid (18:1) at the EC80 concentration was added and calcium flux measured using FlexStation 3 (Molecular Devices). Sigmoidal dose-response curves were generated by measuring […] over 45 sec and calculating the area under the curve. Dose response curves and IC50 values were generated using Prism (GraphPad). Compounds were tested at a final concentration range of 100 pM to 10 μM in 0.10% DMSO.
# Chain of human LPA1 (Q92633 whole entry): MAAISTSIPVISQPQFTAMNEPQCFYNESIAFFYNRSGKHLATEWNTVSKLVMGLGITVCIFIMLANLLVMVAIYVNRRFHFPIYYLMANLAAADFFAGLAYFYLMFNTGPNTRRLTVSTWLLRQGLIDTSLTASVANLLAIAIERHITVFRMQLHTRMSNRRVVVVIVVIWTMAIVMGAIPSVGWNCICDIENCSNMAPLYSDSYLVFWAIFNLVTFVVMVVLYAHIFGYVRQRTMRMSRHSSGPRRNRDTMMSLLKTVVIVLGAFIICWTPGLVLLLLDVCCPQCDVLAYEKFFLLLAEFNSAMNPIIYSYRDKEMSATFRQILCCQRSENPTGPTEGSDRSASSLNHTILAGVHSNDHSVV
row,pIC50,Structure (SMILES)
1,6.00 to 7.00,"Cc1ccc(NC(=O)C2(c3ccccc3C(C)C)CC(CC(=O)N(C)C)C2)c(OC(F)F)n1 (centres unmarked) [Example 67, N-(2-(difluoromethoxy)-6-methylpyridin-3-yl)-3-(2-(dimethylamino)-2-oxoethyl)-1-(2-isopropylphenyl)cyclobutane-1-carboxamide]"
2,6.00 to 7.00,"COc1ccc(NC(=O)C2(c3ccccc3C(C)C)CCC3(CC2)OCCO3)c(OC(F)F)n1 [Example 79, N-(2-(difluoromethoxy)-6-methoxypyridin-3-yl)-8-(2-isopropylphenyl)-1,4-dioxaspiro[4.5]decane-8-carboxamide]"
3,6.00 to 7.00,"CNS(=O)(=O)C1CCC(C(=O)Nc2ccc(OC)nc2OC(F)F)(c2ccccc2C(C)C)CC1 (centres unmarked) [Example 99, N-(2-(difluoromethoxy)-6-methoxypyridin-3-yl)-1-(2-isopropylphenyl)-4-(N-methylsulfamoyl)cyclohexane-1-carboxamide]"
4,6.00 to 7.00,"COc1nc(C)ccc1NC(=O)C1(c2ccccc2C(C)C)CNC(=O)C1 (centres unmarked) [Example 106, 3-(2-isopropylphenyl)-N-(2-methoxy-6-methylpyridin-3-yl)-5-oxopyrrolidine-3-carboxamide]"
5,< 6.00,"CC(=O)N1CC2(C1)CC(C(=O)Nc1ccc(C)nc1OC(F)F)(c1ccccc1C(C)C)C2 [Example 74, 2-acetyl-N-(2-(difluoromethoxy)-6-methylpyridin-3-yl)-6-(2-isopropylphenyl)-2-azaspiro[3.3]heptane-6-carboxamide]"
6,6.00 to 7.00,"Cc1ccc(NC(=O)C2(c3ccccc3C(C)C)CC(CS(C)(=O)=O)C2)c(OC(F)F)n1 (centres unmarked) [Example 64, N-(2-(difluoromethoxy)-6-methylpyridin-3-yl)-1-(2-isopropylphenyl)-3-((methylsulfonyl)methyl)cyclobutane-1-carboxamide]"
7,< 6.00,"Cc1ccc(NC(=O)C2(c3ccccc3C(C)C)CCC2)c(OC(F)F)n1 [Example 73, N-(2-(difluoromethoxy)-6-methylpyridin-3-yl)-1-(2-isopropylphenyl)cyclobutane-1-carboxamide]"
8,7.00 to 8.00,"CC(C)c1ccccc1C1(C(=O)Nc2ccc(Br)cc2OC(F)F)CNC(=O)C1 (centres unmarked) [Example 105, N-(4-bromo-2-(difluoromethoxy)phenyl)-3-(2-isopropylphenyl)-5-oxopyrrolidine-3-carboxamide]"
9,7.00 to 8.00,"Cc1ccc(NC(=O)C2(c3ccccc3C(C)C)CC(S(N)(=O)=O)C2)c(OC(F)F)n1 (mixture of isomers) [Example 69, N-(2-(difluoromethoxy)-6-methylpyridin-3-yl)-1-(2-isopropylphenyl)-3-sulfamoylcyclobutane-1-carboxamide]"
10,7.00 to 8.00,"COc1ccc(NC(=O)C2(c3ccccc3C(C)C)CC(CC#N)C2)c(OC(F)F)n1 (centres unmarked) [Example 111, 3-(cyanomethyl)-N-(2-(difluoromethoxy)-6-methoxypyridin-3-yl)-1-(2-isopropylphenyl)cyclobutane-1-carboxamide]"
11,7.00 to 8.00,"COc1cc(C)ccc1NC(=O)C1(c2ccccc2C(C)C)CNC(=O)C1 (single isomer, unassigned) [Example 102-isomer A, 3-(2-isopropylphenyl)-N-(2-methoxy-4-methylphenyl)-5-oxopyrrolidine-3-carboxamide]"
12,6.00 to 7.00,"COc1ccc(NC(=O)C2(c3ccccc3C(C)C)CNC(=O)C2)c(OC)n1 (centres unmarked) [Example 103, N-(2,6-dimethoxypyridin-3-yl)-3-(2-isopropylphenyl)-5-oxopyrrolidine-3-carboxamide]"

# Continued, compound first:
row,Structure (SMILES),pIC50
1,"CC(C)c1ccccc1C1(C(=O)Nc2ncc(Cl)cc2OC(F)F)CC(O)(C(F)(F)C(=O)O)C1 (single isomer, unassigned) [Example 55-isomer A, 2-(3-((5-chloro-3-(difluoromethoxy)pyridin-2-yl)carbamoyl)-1-hydroxy-3-(2-isopropylphenyl)cyclobutyl)-2,2-difluoroacetic acid]",7.00 to 8.00
2,"CC(C)c1ccccc1C1(C(=O)Nc2ncc(Br)cc2OC(F)F)COC1 [Example 24, N-(5-bromo-3-(difluoromethoxy)pyridin-2-yl)-3-(2-isopropylphenyl)oxetane-3-carboxamide]",7.00 to 8.00
3,"Cc1cc(OC(F)F)c(NC(=O)C2(c3ccccc3C(C)C)CC(=O)N(C)C2)cn1 (centres unmarked) [Example 6, N-(4-(difluoromethoxy)-6-methylpyridin-3-yl)-3-(2-isopropylphenyl)-1-methyl-5-oxopyrrolidine-3-carboxamide]",6.00 to 7.00
4,"COc1cc(Cl)ncc1NC(=O)C1(c2ccccc2C(C)C)CC(O)(C(F)(F)C(=O)O)C1 (centres unmarked) [Example 56, 2-(3-((6-chloro-4-methoxypyridin-3-yl)carbamoyl)-1-hydroxy-3-(2-isopropylphenyl)cyclobutyl)-2,2-difluoroacetic acid]",7.00 to 8.00
5,"Cc1ccc(NC(=O)C2(c3ccccc3C(C)C)CC(O)(C(F)(F)C(=O)O)C2)c(OC(F)F)n1 (mixture of isomers) [Example 53, 2-(3-((2-(difluoromethoxy)-6-methylpyridin-3-yl)carbamoyl)-1-hydroxy-3-(2-isopropylphenyl)cyclobutyl)-2,2-difluoroacetic acid]",> 8.00
6,"COc1ccc(NC(=O)C2(c3ccccc3C(C)C)CC(O)(C(F)(F)C(=O)O)C2)c(OC(F)F)n1 (single isomer, unassigned) [Example 54-isomer A, 2-(3-((2-(difluoromethoxy)-6-methoxypyridin-3-yl)carbamoyl)-1-hydroxy-3-(2-isopropylphenyl)cyclobutyl)-2,2-difluoroacetic acid]",> 8.00
7,"CC(C)c1ccccc1C1(C(=O)Nc2ncc(Cl)cc2OC(F)F)CC(O)(C(F)(F)C(=O)O)C1 (single isomer, unassigned) [Example 55-isomer B, 2-(3-((5-chloro-3-(difluoromethoxy)pyridin-2-yl)carbamoyl)-1-hydroxy-3-(2-isopropylphenyl)cyclobutyl)-2,2-difluoroacetic acid]",7.00 to 8.00
8,"Cc1ccc(NC(=O)C2(c3ccccc3C(C)C)CC(NC3CC3)C2)c(OC(F)F)n1 (single isomer, unassigned) [Example 40-isomer A, 3-(cyclopropylamino)-N-(2-(difluoromethoxy)-6-methylpyridin-3-yl)-1-(2-isopropylphenyl)cyclobutane-1-carboxamide]",6.00 to 7.00
9,"CNC1CC(C(=O)Nc2ccc(C)nc2OC(F)F)(c2ccccc2C(C)C)C1 (mixture of isomers) [Example 38, N-(2-(difluoromethoxy)-6-methylpyridin-3-yl)-1-(2-isopropylphenyl)-3-(methylamino)cyclobutane-1-carboxamide]",6.00 to 7.00
10,"Cc1ccc(NC(=O)C2(c3ccccc3C(C)C)CC(=O)N(C)C2)c(OC(F)F)n1 (centres unmarked) [Example 3, N-(2-(difluoromethoxy)-6-methylpyridin-3-yl)-3-(2-isopropylphenyl)-1-methyl-5-oxopyrrolidine-3-carboxamide]",7.00 to 8.00
11,"Cc1ccc(NC(=O)C2(c3ccccc3C(C)C)CC(CC(=O)O)C2)c(OC(F)F)n1 (mixture of isomers) [Example 45, 2-(3-((2-(difluoromethoxy)-6-methylpyridin-3-yl)carbamoyl)-3-(2-isopropylphenyl)cyclobutyl)acetic acid]",> 8.00
12,"Cc1ccc(NC(=O)C2(c3ccccc3C(C)C)CCOCC2)c(OC(F)F)n1 [Example 13, N-(2-(difluoromethoxy)-6-methylpyridin-3-yl)-4-(2-isopropylphenyl)tetrahydro-2H-pyran-4-carboxamide]",7.00 to 8.00
13,"CC(C)c1ccccc1C1(C(=O)Nc2ccc(Cl)cc2OC(F)F)CCOCC1 [Example 14, N-(4-chloro-2-(difluoromethoxy)phenyl)-4-(2-isopropylphenyl)tetrahydro-2H-pyran-4-carboxamide]",6.00 to 7.00
14,"COc1cc(C)ncc1NC(=O)C1(c2ccccc2C(C)C)COC1 [Example 36, 3-(2-isopropylphenyl)-N-(4-methoxy-6-methylpyridin-3-yl)oxetane-3-carboxamide]",< 6.00
15,"COc1ccc(NC(=O)C2(c3ccccc3C(C)C)CC(O)(C(F)(F)C(=O)O)C2)c(OC(F)F)n1 (single isomer, unassigned) [Example 54-isomer B, 2-(3-((2-(difluoromethoxy)-6-methoxypyridin-3-yl)carbamoyl)-1-hydroxy-3-(2-isopropylphenyl)cyclobutyl)-2,2-difluoroacetic acid]",7.00 to 8.00
16,"Cc1ccc(NC(=O)C2(c3ccccc3C(C)C)CC(N3CCC3)C2)c(OC(F)F)n1 (centres unmarked) [Example 41, 3-(azetidin-1-yl)-N-(2-(difluoromethoxy)-6-methylpyridin-3-yl)-1-(2-isopropylphenyl)cyclobutane-1-carboxamide]",< 6.00
17,"CC(C)c1ccccc1C1(C(=O)Nc2ccc(F)cc2OC(F)F)COC1 [Example 27, N-(2-(difluoromethoxy)-4-fluorophenyl)-3-(2-isopropylphenyl)oxetane-3-carboxamide]",7.00 to 8.00

# Reference: US20250179045A1, “LPAR1 ANTAGONISTS AND USES THEREOF” (Contineum Therapeutics, Inc., priority 2021, published 2025)
